The source of these data is ChEMBL document CHEMBL4017474, “A calcineurin antifungal strategy with analogs of FK506” (Bioorg Med Chem Lett, 2017).

Activity calls are given as the source filed them. No cut-off for these calls is given here.

Data set [1] concerns the target T1, Peptidyl-prolyl cis-trans isomerase FKBP1A (Homo sapiens, UniProt P62942). Nature of the data set: Antagonist activity at human FKBP12 measured after 30 mins by fluorescein labelled SLF tracer based fluorescence polarization assay. A general note: Fluorescence polarisation rises when a labelled molecule tumbles more slowly, as on binding a larger partner.
Data set [2] addresses T1, Peptidyl-prolyl cis-trans isomerase FKBP1A. Nature of the data set: Antagonist activity at recombinant human N-terminal His6-tagged FKBP12 expressed in Escherichia coli assessed as inhibition of FKBP12 binding to calcineurin at […] using […] pretreated for 1 hr followed by substrate addition measured after 1 hr by biomol green dye based spectrophotometric method.

The target is the same in data set [3]. Put plainly: Antagonist activity at recombinant human N-terminal His6-tagged FKBP12 expressed in Escherichia coli assessed as inhibition of FK506 mediated FKBP12 binding to calcineurin using […] pretreated for 1 hr followed by substrate addition measured after 1 hr by biomol green dye based spectrophotometric method.
The subject of data set [4] is Jurkat. Put plainly: Immunosuppressive activity in PMA/ionomycin stimulated human Jurkat T cells assessed as suppression of IL2 production pretreated for 15 to 30 mins followed by PMA/ionomycin addition measured after 18 to 20 hrs by ELISA. The format is cell-based. On the technique in general: In an ELISA, binding on a coated surface is turned into a signal by an enzyme label.

The test system of data set [5] is PBMC. Put plainly: Reversal of FK506-induced inhibition of cell proliferation in concanavalin A stimulated human PBMC at 1 uM measured after 72 hrs by CellTiter-Glo assay relative to control. Type of data set: functional. Further details: scale not given: the % may be the effect or the level left. A general note: Cellular ATP, detected with luciferase, serves as a proxy for viable cell number.

In data set [6] the test system is PBMC. Nature of the data set: Antiproliferative activity against concanavalin A stimulated human PBMC at 1 to 2 ug/ml measured after 72 hrs by CellTiter-Glo assay. The format is cell-based.
In data set [7] the test system is Aspergillus fumigatus. Put plainly: Antifungal activity against Aspergillus fumigatus assessed as spore germination at 12.5 ug/ml measured after 48 hrs in presence of FK506 by broth dilution method relative to control. Type of data set: functional.
Data set [8] deals with Aspergillus fumigatus. Put plainly: Antifungal activity against Aspergillus fumigatus up to 25 ug/ml measured after 48 hrs by broth dilution method. The format is functional.
Data set [9] concerns HepG2. Put plainly: Cytotoxicity against human HepG2 cells. The format is cell-based.
Data set [10] has as its system Vero 76. Nature of the data set: Cytotoxicity against African green monkey Vero 76 cells. The format is cell-based. To be noted: Chlorocebus sabaeus.

T1 sequence (P62942 whole entry): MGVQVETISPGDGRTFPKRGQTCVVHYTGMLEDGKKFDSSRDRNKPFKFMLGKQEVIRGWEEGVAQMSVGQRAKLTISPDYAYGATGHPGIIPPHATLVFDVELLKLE

For orientation: IC50 means the concentration that inhibits the measured activity by half. On to `CO[C@H]1C[C@@H](C)C/C(C)=C/[C@@H](CCCC(=O)NCCN2CCOCC2)C(=O)C[C@H](O)[C@@H](C)[C@@H](/C(C)=C/[C@@H]2CC[C@@H](O)[C@H](OC)C2)OC(=O)[C@@H]2CCCCN2C(=O)C(=O)[C@]2(O)O[C@H]1[C@@H](OC)C[C@H]2C`, for which the IC50 in [1] is 11.5 nM; in [3], 824 nM; in [4], over 10000 nM; in [9] it was over 100000 nM; in [10], over 100000 nM. For the same compound, the inhibition entry in [2] is “inactive”. The Activity in data set [5] is recorded as 45.9%; in [6], “Non-Toxic”; in data set [7], 39.7%. Moreover, the result in [8] was inactive.

As to `CO[C@H]1C[C@@H](C)C/C(C)=C/[C@@H](CCCC(=O)N2CC(O)C2)C(=O)C[C@H](O)[C@@H](C)[C@@H](/C(C)=C/[C@@H]2CC[C@@H](O)[C@H](OC)C2)OC(=O)[C@@H]2CCCCN2C(=O)C(=O)[C@]2(O)O[C@H]1[C@@H](OC)C[C@H]2C`, the IC50 is 12.5 nM in data set [1]; 1110 nM in data set [3]; over 10000 nM in data set [4]; over 100000 nM in data set [9]; over 100000 nM in data set [10]. The inhibition result in data set [2] is “inactive”. In addition, the Activity is 49.9% in data set [5], “Non-Toxic” in data set [6] and 24% in [7]. For the same compound, the outcome in data set [8] was inactive.

Regarding `CO[C@H]1C[C@@H](C)C/C(C)=C/[C@@H](CCCC(=O)N2CCN(Cc3ccccn3)CC2)C(=O)C[C@H](O)[C@@H](C)[C@@H](/C(C)=C/[C@@H]2CC[C@@H](O)[C@H](OC)C2)OC(=O)[C@@H]2CCCCN2C(=O)C(=O)[C@]2(O)O[C@H]1[C@@H](OC)C[C@H]2C`, the IC50 in [1] was 11.2 nM; in [3] it was 1290 nM; in data set [4], over 10000 nM; in data set [9], over 100000 nM; in data set [10], over 100000 nM. The inhibition entry in [2] was “inactive”. Besides, the values for the Activity in data set [5], in [6] and in [7] were 88.3%, “Non-Toxic” and 47.4%, respectively. The result in [8] was inactive.

Regarding `CO[C@H]1C[C@@H](C)C/C(C)=C/[C@@H](CCCC(=O)NCCc2ccccn2)C(=O)C[C@H](O)[C@@H](C)[C@@H](/C(C)=C/[C@@H]2CC[C@@H](O)[C@H](OC)C2)OC(=O)[C@@H]2CCCCN2C(=O)C(=O)[C@]2(O)O[C@H]1[C@@H](OC)C[C@H]2C`, the IC50 in [1] is 14.3 nM; in data set [3], 850 nM; in data set [4], over 10000 nM; in data set [9], over 100000 nM; in data set [10], over 100000 nM. Besides, the inhibition result in data set [2] was “inactive”. The Activity is 36.6% in [5], “Non-Toxic” in data set [6] and 31% in data set [7]. Moreover, the result in [8] was inactive.

Regarding `CO[C@H]1C[C@@H](C)C/C(C)=C/[C@@H](CCN(C)C)C(=O)C[C@H](O)[C@@H](C)[C@@H](/C(C)=C/[C@@H]2CC[C@@H](O)[C@H](OC)C2)OC(=O)[C@@H]2CCCCN2C(=O)C(=O)[C@]2(O)O[C@H]1[C@@H](OC)C[C@H]2C`, the IC50 is 19.2 nM in [1], over 10000 nM in data set [4], over 100000 nM in [9] and over 100000 nM in [10]. Further, in data set [2], the inhibition result is “inactive”. The Activity is 105.6% in data set [5], “Non-Toxic” in [6] and 54.3% in data set [7]. In [8], the outcome was inactive.
